Assay results taken from patent publication US20240409585A1, “MACROCYCLIC IMMUNOMODULATORS” (priority 2021, published 2024).
Bridge positions count the residues as written; N and C are the ends. Square brackets hold non-standard residues; d marks the D form. Peptide text beside a SMILES is read from it. * marks the point of attachment. ξ: configuration not given here. Ala(morpholin-4-yl) = N[C@@H](CN1CCOCC1)C(=O)O; Phe(4-COOH) = N[C@@H](Cc1ccc(C(=O)O)cc1)C(=O)O; Bip = N[C@@H](Cc1ccc(-c2ccccc2)cc1)C(=O)O; Phe(3-OMe) = COc1cccc(C[C@H](N)C(=O)O)c1; Phe(3-F) = N[C@@H](Cc1cccc(F)c1)C(=O)O; Phe(3-Me) = Cc1cccc(C[C@H](N)C(=O)O)c1; Val(3-OH) = CC(C)(O)[C@H](N)C(=O)O; 3Pal = N[C@@H](Cc1cccnc1)C(=O)O; 4Pal = N[C@@H](Cc1ccncc1)C(=O)O; Cha = N[C@@H](CC1CCCCC1)C(=O)O; NMeNle = CCCC[C@H](NC)C(=O)O; Pip = O=C(O)[C@@H]1CCCCN1; Carboxymethyl = O=C(O)C*; NMeA = CN[C@@H](C)C(=O)O; Orn = NCCC[C@H](N)C(=O)O; Dab = NCC[C@H](N)C(=O)O; Dap = NC[C@H](N)C(=O)O; ξDab = NCCC(N)C(=O)O

target: T1, PE-labeled human PD-L1-Ig binding to Jurkat cell line over-expressing human PD-1 (Jurkat-PD-1) (Homo sapiens, UniProt Q15116); assay: Jurkat-PD-1 Cell Binding High-Content Screening Assay (CBA): Method 1; details: Jurkat HPDL1 PD1 IC50 (Method 1), cells printed in nM, Jurkat-hPD-1 cells, PE-labeled PD-L1-Ig 20 nM final; unit nM
T1 construct: expressed in transfected cells; host or cells: Jurkat
T1 sequence (Q15116 25-288): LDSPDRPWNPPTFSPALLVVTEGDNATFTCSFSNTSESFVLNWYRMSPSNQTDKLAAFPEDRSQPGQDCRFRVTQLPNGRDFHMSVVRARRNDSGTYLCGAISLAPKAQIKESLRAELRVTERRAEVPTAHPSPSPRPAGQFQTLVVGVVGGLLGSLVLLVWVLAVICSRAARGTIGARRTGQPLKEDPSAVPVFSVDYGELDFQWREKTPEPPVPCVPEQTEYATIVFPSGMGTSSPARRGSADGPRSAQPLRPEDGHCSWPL

| Structure (SMILES) | IC50 [nM] |
| --- | --- |
| CC(C)C[C@@H]1NC(=O)[C@H](CCN)NC(=O)[C@@H](CC(C)C)NC(=O)[C@H](C)N(C)C(=O)[C@H](C(C)C)NC(=O)[C@H](Cc2ccc(-c3ccccc3)cc2)NC(=O)[C@H](C(C)C)NC(=O)[C@H](Cc2c[nH]c3ccccc23)NC(=O)[C@H](CC(=O)O)NC(=O)[C@H](Cc2ccc(C(=O)O)cc2)NC(=O)[C@H](CN)NC(=O)CSC[C@@H](C(=O)N[C@@H](C)C(N)=O)NC(=O)[C@H]([C@@H](C)O)NC(=O)[C@H](C(C)C)NC1=O [Compound 1416] ({CH2CO}-[Dap][Phe(4-COOH)]DWV[Bip]V[NMeA][dL][Dab]LVTCA-NH2; thioether N-14) | 4.7 |

same assay, conditions: Jurkat HPDL1 PD1 IC50 (uM) (Method 1), Jurkat-hPD-1 cells, PE-labeled PD-L1-Ig 20 nM final

| Structure (SMILES) | IC50 [nM] |
| --- | --- |
| Cc1cccc(C[C@@H]2NC(=O)[C@H](CC(=O)O)NC(=O)[C@H](Cc3ccc(OCC(=O)O)cc3)NC(=O)[C@H](Cc3ccncc3)NC(=O)CSC[C@@H](C(=O)N[C@@H](C)C(N)=O)NC(=O)[C@H](CO)NC(=O)[C@H](Cc3ccccc3)NC(=O)[C@H](CC(C)C)NC(=O)[C@H](CC(N)=O)NC(=O)[C@@H](CC(C)C)NC(=O)[C@H](C)N(C)C(=O)[C@H](Cc3ccccc3)NC(=O)[C@H](Cc3ccc(-c4ccccc4)cc3)NC(=O)[C@H](CC(C)C)NC2=O)c1 [Compound 1588] ({CH2CO}-[4Pal]Y(Carboxymethyl)D[Phe(3-Me)]L[Bip]F[NMeA][dL]NLFSCA-NH2; thioether N-14) | 320 |

same assay, conditions: Jurkat-hPD-1 cells, PE-labeled PD-L1-Ig 20 nM final; read-out: Jurkat HPDL1 PD1 IC50 (uM) (Method 1)

| Structure (SMILES) | IC50 [nM] |
| --- | --- |
| Cc1cccc(C[C@@H]2NC(=O)[C@H](CC(=O)O)NC(=O)[C@H](Cc3ccc(OCC(=O)O)cc3)NC(=O)[C@H](CN3CCOCC3)NC(=O)CSC[C@@H](C(=O)NC(CCN)C(N)=O)NC(=O)[C@H](CCCN)NC(=O)[C@H](C(C)C)NC(=O)[C@H](Cc3cccc(C)c3)NC(=O)[C@H](CCN)NC(=O)[C@@H](CC(C)C)NC(=O)[C@H](C)N(C)C(=O)[C@H](CCC(N)=O)NC(=O)[C@H](Cc3ccc(-c4ccccc4)cc3)NC(=O)[C@H](Cc3ccc(C(=O)O)cc3)NC2=O)c1 (stereo partly drawn) [Example 2298] ({CH2CO}-[Ala(morpholin-4-yl)]Y(Carboxymethyl)D[Phe(3-Me)][Phe(4-COOH)][Bip]Q[NMeA][dL][Dab][Phe(3-Me)]V[Orn]C[ξDab]-NH2; thioether N-14) | 10 |
| Cc1cccc(C[C@@H]2NC(=O)[C@H](CC(=O)O)NC(=O)[C@H](Cc3ccc(OCC(=O)O)cc3)NC(=O)[C@H](CN)NC(=O)CSC[C@@H](C(N)=O)NC(=O)[C@H](CC(=O)O)NC(=O)[C@H](C(C)C)NC(=O)[C@H](CC3CCCCC3)NC(=O)[C@H](CCN)NC(=O)[C@@H](CC(C)C)NC(=O)[C@@H]3CCCCN3C(=O)[C@H](Cc3ccc(OCC(=O)O)cc3)NC(=O)[C@H](Cc3ccc(-c4ccccc4)cc3)NC(=O)[C@H](Cc3ccc(OCC(=O)O)cc3)NC2=O)c1 [Compound 1893] ({CH2CO}-[Dap]Y(Carboxymethyl)D[Phe(3-Me)]Y(Carboxymethyl)[Bip]Y(Carboxymethyl)[Pip][dL][Dab][Cha]VDC-NH2; thioether N-14) | 260 |
| CC(C)C[C@@H]1NC(=O)[C@H](CCN)NC(=O)[C@@H](CC(C)C)NC(=O)[C@H](C)N(C)C(=O)[C@H](CCCNC(=N)N)NC(=O)[C@H](Cc2ccc(-c3ccccc3)cc2)NC(=O)[C@H](C(C)C)NC(=O)[C@H](Cc2c[nH]c3ccccc23)NC(=O)[C@H](CC(N)=O)NC(=O)[C@H](Cc2ccc(O)cc2)NC(=O)[C@H](CC(N)=O)NC(=O)CSC[C@@H](C(=O)N[C@@H](C)C(N)=O)NC(=O)[C@H]([C@@H](C)O)NC(=O)[C@H](C(C)C)NC1=O [Compound 1186] ({CH2CO}-NYNWV[Bip]R[NMeA][dL][Dab]LVTCA-NH2; thioether N-14) | 930 |
| CC[C@H](C)[C@@H]1NC(=O)[C@H](Cc2ccc(-c3ccccc3)cc2)NC(=O)[C@H](C(C)C)NC(=O)[C@H](Cc2c[nH]c3ccccc23)NC(=O)[C@H](CC(=O)O)NC(=O)[C@H](Cc2ccc(C(=O)O)cc2)NC(=O)[C@H](CN)NC(=O)CSC[C@@H](C(=O)N[C@@H](C)C(N)=O)NC(=O)[C@H]([C@@H](C)O)NC(=O)[C@H](C(C)C)NC(=O)[C@H](CC(C)C)NC(=O)[C@H](CCN)NC(=O)[C@@H](CC(C)C)NC(=O)[C@H](C)N(C)C1=O [Compound 1412] ({CH2CO}-[Dap][Phe(4-COOH)]DWV[Bip]I[NMeA][dL][Dab]LVTCA-NH2; thioether N-14) | 50 |
| Cc1cccc(C[C@@H]2NC(=O)[C@H](CC(=O)O)NC(=O)[C@H](Cc3ccc(OCC(=O)O)cc3)NC(=O)[C@H](CN)NC(=O)CSC[C@@H](C(=O)N[C@@H](CCN)C(N)=O)NC(=O)[C@H](CCCN)NC(=O)[C@H](C(C)C)NC(=O)[C@H](CC3CCCCC3)NC(=O)[C@H](CCN)NC(=O)[C@@H](C)NC(=O)[C@H](C)N(C)C(=O)[C@H](Cc3ccc(O)cc3)NC(=O)[C@H](Cc3ccc(-c4ccccc4)cc3)NC(=O)[C@H](Cc3ccc(O)cc3)NC2=O)c1 [Compound 1875] ({CH2CO}-[Dap]Y(Carboxymethyl)D[Phe(3-Me)]Y[Bip]Y[NMeA][dA][Dab][Cha]V[Orn]C[Dab]-NH2; thioether N-14) | 50 |
| CCNC(=O)[C@H](CCN)NC(=O)[C@@H]1CSCC(=O)N[C@@H](Cc2ccncc2)C(=O)N[C@@H](Cc2ccc(OCC(=O)O)cc2)C(=O)N[C@@H](CC(=O)O)C(=O)N[C@@H](Cc2cccc(C)c2)C(=O)N[C@@H](Cc2cccc(F)c2)C(=O)N[C@@H](Cc2ccc(-c3ccccc3)cc2)C(=O)N[C@@H](Cc2ccc(OCC(=O)O)cc2)C(=O)N(C)[C@@H](C)C(=O)N[C@H](CC(C)C)C(=O)N[C@@H](CCN)C(=O)N[C@@H](CC2CCCCC2)C(=O)N[C@@H](C(C)(C)O)C(=O)N[C@@H](CO)C(=O)N1 [Compound 1845] ({CH2CO}-[4Pal]Y(Carboxymethyl)D[Phe(3-Me)][Phe(3-F)][Bip]Y(Carboxymethyl)[NMeA][dL][Dab][Cha][Val(3-OH)]SC[Dab]-NHEt; thioether N-14) | 10 |
| CC(C)C[C@@H]1NC(=O)[C@H](Cc2c[nH]c3ccccc23)NC(=O)[C@H](CC(=O)O)NC(=O)[C@H](Cc2ccc(C(=O)O)cc2)NC(=O)[C@H](Cc2cnc[nH]2)NC(=O)CSC[C@@H](C(=O)N[C@@H](C)C(N)=O)NC(=O)[C@H](CO)NC(=O)[C@H](C(C)C)NC(=O)[C@H](CC(C)C)NC(=O)[C@H](CC(N)=O)NC(=O)[C@@H](C)NC(=O)[C@H](C)N(C)C(=O)[C@H](C(C)C)NC(=O)[C@H](Cc2ccc(-c3ccccc3)cc2)NC1=O [Compound 1760] ({CH2CO}-H[Phe(4-COOH)]DWL[Bip]V[NMeA][dA]NLVSCA-NH2; thioether N-14) | 30 |
| CCCC[C@H]1C(=O)N[C@@H](Cc2ccc(C(=O)O)cc2)C(=O)N[C@@H](CC(=O)O)C(=O)N[C@@H](Cc2cccc(C)c2)C(=O)N[C@@H](Cc2ccc(C(=O)O)cc2)C(=O)N[C@@H](Cc2ccc(-c3ccccc3)cc2)C(=O)N[C@@H](Cc2ccc(C(=O)O)cc2)C(=O)N(C)[C@@H](C)C(=O)N[C@H](CC(C)C)C(=O)N[C@@H](CCN)C(=O)N[C@@H](CC2CCCCC2)C(=O)N[C@@H](C(C)(C)O)C(=O)N[C@@H](CO)C(=O)N[C@H](C(=O)N[C@@H](CCN)C(N)=O)CSCC(=O)N1C [Compound 2205] ({CH2CO}-[NMeNle][Phe(4-COOH)]D[Phe(3-Me)][Phe(4-COOH)][Bip][Phe(4-COOH)][NMeA][dL][Dab][Cha][Val(3-OH)]SC[Dab]-NH2; thioether N-14) | 60 |
| Cc1cccc(C[C@@H]2NC(=O)[C@H](CC(=O)O)NC(=O)[C@H](Cc3ccc(OCC(=O)O)cc3)NC(=O)[C@H](CN3CCOCC3)NC(=O)CSC[C@@H](C(=O)NC(CCN)C(N)=O)NC(=O)[C@H](CCCN)NC(=O)[C@H](C(C)C)NC(=O)[C@H](Cc3ccc(O)cc3)NC(=O)[C@H](CCN)NC(=O)[C@@H](CC(C)C)NC(=O)[C@H](C)N(C)C(=O)[C@H](CCC(N)=O)NC(=O)[C@H](Cc3ccc(-c4ccccc4)cc3)NC(=O)[C@H](Cc3ccc(C(=O)O)cc3)NC2=O)c1 (stereo partly drawn) [Example 2301] ({CH2CO}-[Ala(morpholin-4-yl)]Y(Carboxymethyl)D[Phe(3-Me)][Phe(4-COOH)][Bip]Q[NMeA][dL][Dab]YV[Orn]C[ξDab]-NH2; thioether N-14) | 980 |
| CC(C)C[C@@H]1NC(=O)[C@H](Cc2c[nH]c3ccccc23)NC(=O)[C@H](CC(=O)O)NC(=O)[C@H](Cc2ccc(O)cc2)NC(=O)[C@H](Cc2ccccc2)NC(=O)CSC[C@@H](C(=O)N[C@@H](C)C(N)=O)NC(=O)[C@H](CO)NC(=O)[C@H](C(C)C)NC(=O)[C@H](CC(C)C)NC(=O)[C@H](CCN)NC(=O)[C@@H](C)NC(=O)[C@H](C)N(C)C(=O)[C@H](CCCNC(=N)N)NC(=O)[C@H](Cc2ccc(-c3ccccc3)cc2)NC1=O [Compound 1751] ({CH2CO}-FYDWL[Bip]R[NMeA][dA][Dab]LVSCA-NH2; thioether N-14) | 30 |
| COc1cccc(C[C@@H]2NC(=O)[C@H](Cc3cccnc3)NC(=O)CSC[C@@H](C(=O)NCC(N)=O)NC(=O)[C@H](CO)NC(=O)[C@H](C(C)C)NC(=O)[C@H](CC(C)C)NC(=O)[C@H](CC(N)=O)NC(=O)[C@@H](CC(C)C)NC(=O)[C@H](C)N(C)C(=O)[C@H](C(C)C)NC(=O)[C@H](Cc3ccc(-c4ccccc4)cc3)NC(=O)[C@H](CC(C)C)NC(=O)[C@H](Cc3c[nH]c4ccccc34)NC(=O)[C@H](CC(=O)O)NC2=O)c1 [Compound 1524] ({CH2CO}-[3Pal][Phe(3-OMe)]DWL[Bip]V[NMeA][dL]NLVSCG-NH2; thioether N-14) | 10 |
| CC[C@H](C)[C@@H]1NC(=O)[C@H](Cc2ccc(-c3ccccc3)cc2)NC(=O)[C@H](C(C)(C)O)NC(=O)[C@H](Cc2cccc(C)c2)NC(=O)[C@H](CC(=O)O)NC(=O)[C@H](Cc2ccc(O)cc2)NC(=O)[C@H](CC(N)=O)NC(=O)CSC[C@@H](C(=O)N[C@@H](CCN)C(N)=O)NC(=O)[C@H]([C@@H](C)O)NC(=O)[C@H](C(C)(C)O)NC(=O)[C@H](CC(C)C)NC(=O)[C@H](CCN)NC(=O)[C@@H](CC(C)C)NC(=O)[C@H](C)N(C)C1=O [Compound 1687] ({CH2CO}-NYD[Phe(3-Me)][Val(3-OH)][Bip]I[NMeA][dL][Dab]L[Val(3-OH)]TC[Dab]-NH2; thioether N-14) | 110 |
